# Source: publication PMC12439166, “Dietary flavonoids form supramolecular assemblies, alter biochemistry, and enhance cell resilience” (Frontiers in Nutrition, 2025)
# Target: T1, Sirtuin-3 (SIRT3) (Homo sapiens, UniProt Q9NTG7)
# T1 sequence (Q9NTG7 1-399): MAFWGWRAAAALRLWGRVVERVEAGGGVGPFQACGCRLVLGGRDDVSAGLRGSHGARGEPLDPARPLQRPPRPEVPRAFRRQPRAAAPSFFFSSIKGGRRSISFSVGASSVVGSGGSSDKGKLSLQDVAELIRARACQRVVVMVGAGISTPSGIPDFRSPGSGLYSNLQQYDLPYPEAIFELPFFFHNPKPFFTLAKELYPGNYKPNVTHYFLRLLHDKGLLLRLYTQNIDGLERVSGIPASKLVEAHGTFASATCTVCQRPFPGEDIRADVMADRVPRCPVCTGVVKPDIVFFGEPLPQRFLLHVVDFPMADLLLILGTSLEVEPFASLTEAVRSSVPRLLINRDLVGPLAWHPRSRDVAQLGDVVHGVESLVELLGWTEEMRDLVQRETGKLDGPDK
# Assay: Enzyme activity assay (SAMDI-MS), SIRT3
# Format: biochemical
# Conditions: 10 concentrations, 5 nM to 100 μM, compounds incubated with enzyme 30 min, result in words
# Description: Enzyme screens were performed by SAMDI Tech (contract research organization); enzyme assays were performed in a 20 μL volume in 384-well low-volume polypropylene microtiter plates (Greiner Bio-One) at room temperature. The enzymes [Arginase 1 (ARG1), Lysine demethylase 4C (KDM4C), MAP/microtubule affinity-regulating kinase 4 (MARK4), Histone-Lysine N-methyltransferase (NSD2), Tyrosine-protein phosphatase non-receptor type 1 (PTP1B), and Sirtuin-3 (SIRT3)] were incubated with compounds for 30 min prior to initiation of the reaction by the addition of substrate and cofactors (if required). […] SAMDI MS was performed using reflector positive mode on an AB Sciex TOF-TOF 5800 System (AB Sciex, Framingham, MA) with 400 shots/spot analyzed in a random raster sampling. For data analysis, the area under the curves (AUCs) for the product peak and substrate peak were calculated using the TOF/TOF Series Explorer (AB Sciex), and the amount of product formed was calculated using the equation AUC product / (AUC product + AUC Substrate). […]
# IC50 values of enzyme inhibition. Inhibition of the enzymes was measured at 10 concentration values in the range of 5 nM to 100 μM for each compound and enzyme, with two technical replicates; the percent inhibition values were determined by SAMDI software. […]
smiles,measurement,setting,value
O=c1c(O)c(-c2ccc(O)c(O)c2)oc2cc(O)cc(O)c12 [quercetin],"inhibition of enzyme activity, SIRT3",listed as Quercetin,inhibited
same,"inhibition of enzyme activity, SIRT3",listed as Quercitin,concentration-dependent inhibition
